The text below walks through data of patent US11279733B2, “Peptide antibiotics” (priority 2017, dated 2022).

Molecules are shown by their SMILES. ≈ marks a conversion by molar mass, not a printed value. Positions of bridges follow the written chain, without caps; N, C: chain ends. Non-standard residues stand in square brackets, D forms with d. Residues, ends and D or L forms follow the SMILES beside them. *: point of attachment. dPhe(4-CN) = N#Cc1ccc(C[C@@H](N)C(=O)O)cc1; Decanoyl(3R-OH) = CCCCCCC[C@@H](O)CC(=O)*; Ala(cPr) = N[C@@H](CC1CC1)C(=O)O; dDab = NCC[C@@H](N)C(=O)O; Dab = NCC[C@H](N)C(=O)O

Series [1] relates to A. baumannii GN_093 PmxR. Particulars: GN 093 PmxR. The procedure, abridged: (§1)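 Mid-log cultures grown in Mueller Hinton broth at 37° C were tested by 2-fold broth microdilution at 5×10^5 CFU/mL final. Compounds were dissolved in water and tested over a final range of 32 to 0.015 μg/mL.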
In series [2] the test system is P. aeruginosa GN_043, PmxR. The conditions noted are these: polymyxin-resistant. A digest of the protocol:
as §1

The test system of series [3] is P. aeruginosa GN_105, PmxR. Particulars: GN 105, PmxR. The procedure, abridged:
as §1

Series [4] deals with K. pneumoniae GN_102 PmxR. Particulars: GN 102 PmxR. The procedure, abridged: as §1
In series [5] the test system is A. baumannii ATCC 19606. Particulars: ATCC 19606. The procedure, abridged: as §1
Series [6] concerns K. pneumoniae GN_106, PmxR. The conditions noted are these: GN 106, PmxR. A digest of the protocol:
as §1

In series [7] the test system is S. aureus ATCC 25923, MSSA. Particulars: ATCC 25923. A digest of the protocol: as §1
Series [8] deals with K. pneumoniae ATCC 700603, MDR. Particulars: ATCC 700603. The procedure, abridged:
as §1

Series [9] relates to K. pneumoniae ATCC BAA-2146, NDM-1 pos. Particulars: ATCC BAA-2146. A digest of the protocol: as §1
For series [10], the system named is P. aeruginosa ATCC 27853. The conditions noted are these: ATCC 27853. The procedure, abridged: as §1
The test system of series [11] is K. pneumoniae ATCC 13883. The conditions noted are these: ATCC 13883. A digest of the protocol:
as §1

Series [12] has as its system E. coli ATCC 25922. The conditions noted are these: ATCC 25922. A digest of the protocol: as §1
Series [13] can be described thus: in vitro. The conditions noted are these: human. The procedure, abridged: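 Cells were seeded at 4000 per well and allowed to attach for 24 h at 37 °C, 5% CO2, then exposed to compounds for 24 h. Resazurin (5 μM) was added for 2 h at 37 °C and fluorescence read at 560/590 nm. CC50 was derived by curve fitting of dose-dependent growth inhibition.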

Turning to `CCCCCCC[C@@H](O)CC(=O)N[C@H](CCN)C(=O)N[C@H]1CCNC(=O)[C@H](CC(C)C)NC(=O)[C@H](CCN)NC(=O)[C@H](CCN)NC(=O)[C@H](CC(C)C)NC(=O)[C@@H](Cc2ccccc2)NC(=O)[C@H](CCNC(=O)[C@@H](N)CCCNC(=N)N)NC1=O` [compound 6655, 3(R)OH-nC9CO-D-Dab-cyc[L-Dab-L-Dab(L-Arg)-D-Phe-L-Leu-L-Dab-L-Dab-L-Leu]] ({Decanoyl(3R-OH)}-[dDab][Dab][Dab](Arg)[dF]L[Dab][Dab]L; lactam 2-C), the “MIC, A. baumannii Cl Ptyela 10073 4512:2, PmxR” value in series [1] is more than 32 µg/mL. For the same compound, in [2] (Table 5), the “MIC, P. aeruginosa FADDI-PA070, PmxR” value was 4 µg/mL (≈ 3.33 µM). In addition, the “MIC, P. aeruginosa PA9704, PmxR” value in series [3] is 4 µg/mL (≈ 3.33 µM). Further, the “MIC, K. pneumoniae Cl Koprana 10065 0661:1, PmxR” value in series [4] was found to be 16 µg/mL (≈ 13.3 µM). Also, the “MIC, A. baumannii ATCC 19606” value in [5] was found to be 32 µg/mL (≈ 26.7 µM). In addition, the “MIC, K. pneumoniae Cl 138-16347-20362, PmxR” value in [6] was more than 32 µg/mL. Besides, the “MIC, S. Aureus ATCC 25923, MSSA” value in series [7] came out at 16 µg/mL (≈ 13.3 µM). In addition, the “MIC, K. pneumoniae ATCC 700603, MDR” value in series [8] is 8 µg/mL (≈ 6.66 µM). In addition, the “MIC, K. pneumoniae ATCC BAA-2146, NDM-1 pos” value in [9] worked out at 16 µg/mL (≈ 13.3 µM). The “MIC, P. aeruginosa ATCC 27853” value in [10] came to 4 µg/mL (≈ 3.33 µM). Moreover, the “MIC, K. pneumoniae ATCC 13883” value in series [11] was 32 µg/mL (≈ 26.7 µM). Moreover, in series [12], the “MIC, E. coli ATCC 25922” value amounted to 8 µg/mL (≈ 6.66 µM). This compound also had a CC50 at 24 h in series [13] of more than 300 µM.

Take `CCCCCCC[C@@H](O)CC(=O)N[C@H](CCN)C(=O)N[C@H]1CCNC(=O)[C@H](Cc2c[nH]c3ccccc23)NC(=O)[C@H](CCN)NC(=O)[C@H](CCN)NC(=O)[C@H](CC2CC2)NC(=O)[C@@H](Cc2ccccc2)NC(=O)[C@H](CCN)NC1=O` [compound 8099, 3(R)OH-nC9CO-D-Dab-cyc[L-Dab-L-Dab-D-Phe-L-Ala(cycloprop)-L-Dab-L-Dab-L-Trp]] ({Decanoyl(3R-OH)}-[dDab][Dab][Dab][dF][Ala(cPr)][Dab][Dab]W; lactam 2-C): the “MIC A. baumannii GN_093 PmxR” value in series [1] was determined as 16 µg/mL (≈ 14.3 µM). In series [2], the “MIC P. aeruginosa GN_043, PmxR” value came to 2 µg/mL (≈ 1.79 µM). The “MIC P. aeruginosa GN_105, PmxR” value in series [3] is more than 32 µg/mL. For the same compound, in [4], the “MIC K. pneumoniae GN_102 PmxR” value came out at 4 µg/mL (≈ 3.59 µM). Moreover, in [5], the “MIC A. baumannii ATCC 19606” value is 8 µg/mL (≈ 7.17 µM). In addition, in [6], the “MIC K. pneumoniae GN_106, PmxR” value was 4 µg/mL (≈ 3.59 µM). Besides, in series [7], the “MIC S. aureus ATCC 25923, MSSA” value came out at 16 µg/mL (≈ 14.3 µM). Besides, the “MIC K. pneumoniae ATCC 700603, MDR” value in [8] stood at 8 µg/mL (≈ 7.17 µM). In addition, in series [9], the “MIC K. pneumoniae ATCC BAA-2146, NDM-1 pos” value is 4 µg/mL (≈ 3.59 µM). Also, the “MIC P. aeruginosa ATCC 27853” value in [10] worked out at 2 µg/mL (≈ 1.79 µM). Besides, in series [11], the “MIC K. pneumoniae ATCC 13883” value was 8 µg/mL (≈ 7.17 µM). Further, in series [12], the “MIC E. coli ATCC 25922” value is 8 µg/mL (≈ 7.17 µM). In addition, in series [13], the CC50 at 24 h stood at 73 µM.

Turning to `CCCCCCC[C@@H](O)CC(=O)N[C@H](CCN)C(=O)N[C@H]1CCNC(=O)[C@H](Cc2c[nH]c3ccccc23)NC(=O)[C@H](CCN)NC(=O)[C@H](CCN)NC(=O)[C@H](CC(C)C)NC(=O)[C@@H](Cc2ccc(C#N)cc2)NC(=O)[C@H](CCN)NC1=O` [compound 8105, 3(R)OH-nC9CO-D-Dab-cyc[L-Dab-L-Dab-L-Dab-D-Phe(4-CN)-L-Leu-L-Dab-L-Dab-L-Trp]] ({Decanoyl(3R-OH)}-[dDab][Dab][Dab][dPhe(4-CN)]L[Dab][Dab]W; lactam 2-C), in series [1], the “MIC A. baumannii GN_093 PmxR” value came to 16 µg/mL (≈ 14 µM). In addition, the “MIC P. aeruginosa GN_043, PmxR” value in [2] is 2 µg/mL (≈ 1.75 µM). The “MIC P. aeruginosa GN_105, PmxR” value in [3] turned out to be 2 µg/mL (≈ 1.75 µM). Further, the “MIC K. pneumoniae GN_102 PmxR” value in [4] is 4 µg/mL (≈ 3.5 µM). In addition, in series [5], the “MIC A. baumannii ATCC 19606” value came out at 8 µg/mL (≈ 7 µM). In addition, the “MIC K. pneumoniae GN_106, PmxR” value in series [6] is 8 µg/mL (≈ 7 µM). In series [7], the “MIC S. aureus ATCC 25923, MSSA” value stood at 4 µg/mL (≈ 3.5 µM). For the same compound, the “MIC K. pneumoniae ATCC 700603, MDR” value in [8] is 8 µg/mL (≈ 7 µM). Besides, the “MIC K. pneumoniae ATCC BAA-2146, NDM-1 pos” value in series [9] came to 4 µg/mL (≈ 3.5 µM). Further, the “MIC P. aeruginosa ATCC 27853” value in [10] stood at 2 µg/mL (≈ 1.75 µM). Also, in series [11], the “MIC K. pneumoniae ATCC 13883” value is 8 µg/mL (≈ 7 µM). In addition, the “MIC E. coli ATCC 25922” value in [12] is 4 µg/mL (≈ 3.5 µM). This compound had a CC50 at 24 h in [13] of 107 µM.
